Key:
Assay in all cases: Test C preemergence
Format in all cases: in vivo
[1] = test system: ryegrass, Italian (Italian ryegrass, Lolium multiflorum); conditions: for Plant response rating, Ryegrass, Italian: scale 0 to 100, 0 no effect, 100 complete control
Summary of the method: (§1)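 Seeds in loam-sand soil treated preemergence, or plants in peat-based medium sprayed postemergence at 2–18 cm (1- to 4-leaf stage), with compound in a non-phytotoxic solvent mixture containing surfactant. Greenhouse-held 13–15 d, then visually rated against controls on a 0–100 scale (0 = no effect, 100 = complete control); dash = not tested.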

[2] = test system: foxtail, giant (giant foxtail, Setaria faberii); conditions: for Plant response rating, Foxtail, Giant: scale 0 to 100, 0 no effect, 100 complete control
Summary of the method: as §1

[3] = test system: pigweed (Amaranthus retroflexus); conditions: for Plant response rating, Pigweed: scale 0 to 100, 0 no effect, 100 complete control
Summary of the method: as §1

[4] = test system: lambsquarters (Chenopodium album); conditions: for Plant response rating, Lambsquarters: scale 0 to 100, 0 no effect, 100 complete control
Summary of the method: as §1

[5] = test system: johnsongrass (Sorghum halepense); conditions: for Plant response rating, Johnsongrass: scale 0 to 100, 0 no effect, 100 complete control
Summary of the method: as §1

[6] = test system: oilseed rape (Brassica napus); conditions: for Plant response rating, Oilseed Rape: scale 0 to 100, 0 no effect, 100 complete control
Summary of the method: as §1

[7] = test system: nutsedge, yellow (yellow nutsedge, Cyperus esculentus); conditions: for Plant response rating, Nutsedge, Yellow: scale 0 to 100, 0 no effect, 100 complete control
Summary of the method: as §1

[8] = test system: morningglory (Ipomoea coccinea); conditions: for Plant response rating, Morningglory: scale 0 to 100, 0 no effect, 100 complete control
Summary of the method: as §1

[9] = test system: wheat (winter wheat, Triticum aestivum); conditions: for Plant response rating, Wheat: scale 0 to 100, 0 no effect, 100 complete control
Summary of the method: as §1

[10] = test system: barnyardgrass (Echinochloa crus-galli); conditions: for Plant response rating, Barnyardgrass: scale 0 to 100, 0 no effect, 100 complete control
Summary of the method: as §1

soybean (Glycine max) = conditions: for Plant response rating, Soybean: scale 0 to 100, 0 no effect, 100 complete control
Summary of the method: as §1

[11] = test system: crabgrass, large (large crabgrass, Digitaria sanguinalis); conditions: for Plant response rating, Crabgrass, Large: scale 0 to 100, 0 no effect, 100 complete control
Summary of the method: as §1

[12] = test system: blackgrass (Alopecurus myosuroides); conditions: for Plant response rating, Blackgrass: scale 0 to 100, 0 no effect, 100 complete control
Summary of the method: as §1

corn (Zea mays) = conditions: for Plant response rating, Corn: scale 0 to 100, 0 no effect, 100 complete control
Summary of the method: as §1

[13] = test system: velvetleaf (Abutilon theophrasti); conditions: for Plant response rating, Velvetleaf: scale 0 to 100, 0 no effect, 100 complete control
Summary of the method: as §1

[14] = test system: Galium (catchweed bedstraw, Galium aparine); conditions: for Plant response rating, Galium: scale 0 to 100, 0 no effect, 100 complete control
Summary of the method: as §1

[15] = test system: waterhemp (common waterhemp, Amaranthus rudis); conditions: for Plant response rating, Waterhemp: scale 0 to 100, 0 no effect, 100 complete control
Summary of the method: as §1

[16] = 31 g ai/ha, 0 is no effect, 100 is complete control

SMILES: CN1CC(c2cc(F)cc(F)c2)C(C(=O)Nc2ccc(F)c(F)c2F)C1=O (centres unmarked) [Compound 646]
- Plant response rating (scale of 0 to 100), Ryegrass, Italian [1, 16]: 30
- Plant response rating, Ryegrass, Italian ([1]; 62 g ai/ha): 20
- Plant response rating, Ryegrass, Italian ([1]; 125 g ai/ha): 80
- Plant response rating, Ryegrass, Italian ([1]; 250 g ai/ha): 90
- Plant response rating (scale of 0 to 100), Foxtail, Giant [2, 16]: 95
- Plant response rating, Foxtail, Giant ([2]; 62 g ai/ha): 95
- Plant response rating, Foxtail, Giant ([2]; 125 g ai/ha): 95
- Plant response rating, Foxtail, Giant ([2]; 250 g ai/ha): 98
- Plant response rating (scale of 0 to 100), Pigweed [3, 16]: 0
- Plant response rating, Pigweed ([3]; 62 g ai/ha): 10
- Plant response rating, Pigweed ([3]; 125 g ai/ha): 65
- Plant response rating, Pigweed ([3]; 250 g ai/ha): 75
- Plant response rating (scale of 0 to 100), Lambsquarters [4, 16]: 40
- Plant response rating, Lambsquarters ([4]; 62 g ai/ha): 60
- Plant response rating, Lambsquarters ([4]; 125 g ai/ha): 75
- Plant response rating, Lambsquarters ([4]; 250 g ai/ha): 80
- Plant response rating (scale of 0 to 100), Johnsongrass [5, 16]: 35
- Plant response rating, Johnsongrass ([5]; 62 g ai/ha): 40
- Plant response rating, Johnsongrass ([5]; 125 g ai/ha): 85
- Plant response rating, Johnsongrass ([5]; 250 g ai/ha): 90
- Plant response rating (scale of 0 to 100), Oilseed Rape [6, 16]: 15
- Plant response rating, Oilseed Rape ([6]; 62 g ai/ha): 80
- Plant response rating, Oilseed Rape ([6]; 125 g ai/ha): 85
- Plant response rating, Oilseed Rape ([6]; 250 g ai/ha): 90
- Plant response rating (scale of 0 to 100), Nutsedge, Yellow [7, 16]: 0
- Plant response rating, Nutsedge, Yellow ([7]; 62 g ai/ha): 0
- Plant response rating, Nutsedge, Yellow ([7]; 125 g ai/ha): 0
- Plant response rating, Nutsedge, Yellow ([7]; 250 g ai/ha): 35
- Plant response rating (scale of 0 to 100), Morningglory [8, 16]: 0
- Plant response rating, Morningglory ([8]; 62 g ai/ha): 0
- Plant response rating, Morningglory ([8]; 125 g ai/ha): 0
- Plant response rating, Morningglory ([8]; 250 g ai/ha): 10
- Plant response rating (scale of 0 to 100), Wheat [9, 16]: 35
- Plant response rating, Wheat ([9]; 62 g ai/ha): 80
- Plant response rating, Wheat ([9]; 125 g ai/ha): 85
- Plant response rating, Wheat ([9]; 250 g ai/ha): 90
- Plant response rating (scale of 0 to 100), Barnyardgrass [10, 16]: 90
- Plant response rating, Barnyardgrass ([10]; 62 g ai/ha): 95
- Plant response rating, Barnyardgrass ([10]; 125 g ai/ha): 98
- Plant response rating, Barnyardgrass ([10]; 250 g ai/ha): 98
- Plant response rating (scale of 0 to 100), Soybean (soybean (Glycine max); [16]): 0
- Plant response rating, Soybean (soybean (Glycine max); 62 g ai/ha): 0
- Plant response rating, Soybean (soybean (Glycine max); 125 g ai/ha): 10
- Plant response rating, Soybean (soybean (Glycine max); 250 g ai/ha): 0
- Plant response rating (scale of 0 to 100), Crabgrass, Large [11, 16]: 95
- Plant response rating, Crabgrass, Large ([11]; 62 g ai/ha): 95
- Plant response rating, Crabgrass, Large ([11]; 125 g ai/ha): 98
- Plant response rating, Crabgrass, Large ([11]; 250 g ai/ha): 100
- Plant response rating (scale of 0 to 100), Blackgrass [12, 16]: 80
- Plant response rating, Blackgrass ([12]; 62 g ai/ha): 80
- Plant response rating, Blackgrass ([12]; 125 g ai/ha): 85
- Plant response rating, Blackgrass ([12]; 250 g ai/ha): 98
- Plant response rating (scale of 0 to 100), Corn (corn (Zea mays); [16]): 35
- Plant response rating, Corn (corn (Zea mays); 62 g ai/ha): 45
- Plant response rating, Corn (corn (Zea mays); 125 g ai/ha): 65
- Plant response rating, Corn (corn (Zea mays); 250 g ai/ha): 75
- Plant response rating (scale of 0 to 100), Velvetleaf [13, 16]: 15
- Plant response rating, Velvetleaf ([13]; 62 g ai/ha): 25
- Plant response rating, Velvetleaf ([13]; 125 g ai/ha): 55
- Plant response rating, Velvetleaf ([13]; 250 g ai/ha): 60
- Plant response rating (scale of 0 to 100), Galium [14, 16]: 90
- Plant response rating, Galium ([14]; 62 g ai/ha): 90
- Plant response rating, Galium ([14]; 125 g ai/ha): 90
- Plant response rating, Galium ([14]; 250 g ai/ha): 100
- Plant response rating (scale of 0 to 100), Waterhemp [15, 16]: 65
- Plant response rating, Waterhemp ([15]; 62 g ai/ha): 60
- Plant response rating, Waterhemp ([15]; 125 g ai/ha): 75
- Plant response rating, Waterhemp ([15]; 250 g ai/ha): 85
